According to US11793746B2, “Intense skin hydration systems and methods” (priority 2020, dated 2023):

Key:
[1] = test system: collagen I and III synthesis; experiment: [3H]-Proline incorporation as measure of collagen deposition; format: cell-based, human; conditions: in vitro
From the text: This human skin substrate consists of neonatal foreskin fibroblasts that secrete a functionally active extracellular matrix grown on a medical-grade nylon mesh cocultured with human neonatal foreskin keratinocytes that differentiate into a multilayered epidermis.
Quantifying proline incorporation can be used to measure potential collagen deposition stimulated by a test substance. This concept is the foundation for the following experiments.

[2] = test system: PGE2 synthesis by 3T3 fibroblasts; experiment: Inhibition of PGE2 synthesis by 3T3 fibroblasts (ELISA); format: cell-based; conditions: for [PGE2]: 24 h
From the text: This Example establishes the anti-inflammatory potential of GC-100 by measuring the inhibition of PGE2 synthesis by 3T3 fibroblasts in cell culture.
The cells are nourished in a medium enriched with arachidonic acid which leads to increased secretion of eicosanoids into the medium.
The formation of prostaglandin PGE2 will be followed as a marker of eicosanoid synthesis, because it is a stable molecule secreted preferentially by 3T3 fibroblasts. The anti-inflammatory potential of an active ingredient may then be investigated by following the decrease in secretion of PGE2 in the culture medium.
Quantification of PGE2 will be achieved using an enzyme-linked immunosorbant assay (ELISA). In principle, the PGE2 expressed by the cells in culture medium will compete with enzyme-linked PGE2 for available antibody, which is a constant. The concentration of enzyme-linked PGE2 is also constant and quantified prior to testing. The enzyme linked to PGE2 prior to testing is acetylcholinesterase. Since the quantity of PGE2 expressed by 3T3 cells in culture will vary based on the concentration of GC-100 present, the amount of antibody available to bind to the enzyme-linked PGE2 versus that produced by the 3T3 cells assumes an inverse relationship that is dependent on Brownian motion. After eliminating unreacted PGE2 through washing, substrate is added that binds to the enzyme-PGE2-antibody complex to generate a yellow color that is strongly evident using spectrophotometer set at 412 nm. The amount of light transmitted through the test sample is directly proportional to the intensity of the color change and, consequently, to the concentration of PGE2-enzyme-antibody complex.
Create a mother solution (solution #1) containing complete DMEM, alcohol, and 2×10^5 3T3 fibroblasts for plating onto 25 cm^2 culture dishes. Using a compounding dilution technique, prepare the following solutions, using 5 mL of media per plate: • Solution #2: Solution #1 plus arachidonic acid (10^−3% P/V) • Solution #3: Solution #2 plus indomethacin (0,1,10^−3% P/V) • Solution #4: Solution #2 plus GC-100 0.5% • Solution #5: Solution #2 plus GC-100 1.0%
Incubate all preparations for 24 hours at 37° C. Recover the supernatant media, and if needed deep freeze it at −20° C. before quantification. Count the number of surviving cells using a coulter counter. Establish a calibration curve of the quantity of PGE2. Quantify the supernatant media using an enzyme-linked immunosorbant assay kit specific for PGE2 (Cayman), using a Dynotech microplate reader (MR500) with a filter set at 412 nm. Calculate the % inhibition of PGE2 synthesis. The results are shown in Table 4 and FIG. 10, which is a graph showing mean suppression of PGE2 concentration in test media comprising indomethacin or GC-100.

tyrosinase = molecular target: T1, tyrosinase (Mus musculus, UniProt P11344); experiment: Tyrosinase activity in B16 melanoma cells; format: cell-based
T1 construct: endogenous in cells; host or cells: B16 melanoma cells
T1 sequence (P11344 19-533): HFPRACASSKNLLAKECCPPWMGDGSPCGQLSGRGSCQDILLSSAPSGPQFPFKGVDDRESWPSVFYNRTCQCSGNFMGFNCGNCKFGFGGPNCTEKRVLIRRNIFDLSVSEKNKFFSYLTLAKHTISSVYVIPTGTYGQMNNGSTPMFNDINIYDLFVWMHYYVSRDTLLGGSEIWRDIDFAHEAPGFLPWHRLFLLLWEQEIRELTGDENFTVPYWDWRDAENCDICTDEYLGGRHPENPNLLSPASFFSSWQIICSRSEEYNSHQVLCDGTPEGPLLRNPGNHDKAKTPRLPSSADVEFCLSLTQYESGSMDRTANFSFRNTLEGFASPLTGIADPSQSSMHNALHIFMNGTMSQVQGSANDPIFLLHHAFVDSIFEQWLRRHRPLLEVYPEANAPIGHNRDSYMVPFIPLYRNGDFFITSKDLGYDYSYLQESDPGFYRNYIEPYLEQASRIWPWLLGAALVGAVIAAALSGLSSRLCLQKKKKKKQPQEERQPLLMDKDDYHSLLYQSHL
Procedure: This Example establishes and quantifies the effect of GC-100 on tyrosinase synthesis in B16 melanoma cells.
It has been reported that tyrosinase in synthesized in B16 melanoma cells within 24 hours of plating. On the basis of these reports, B16 melanoma cells were used to evaluate the inhibitory effects of GC-100 on tyrosinase synthesis. As an indication of tyrosinase synthesis, tyrosinase activity in B16 melanoma cells was measured in addition to the amount of melanin synthesized per cell.
B16 melanoma cells (5.0′×10^4) were incubated in a 96-well microplate supplemented with DMEM and 5% fetal calf serum at 37° C. for 24 hours. Incubation was continued for an additional 24 hours at 37° C. in DMEM supplemented with GC-100 at either 250 μg/mL, 500 μg/mL, or 1000 μg/mL. After washing cells with PBS twice, the cells were lysed with 50 μL of phosphate buffer (0.05 mM, pH 6.8) containing 0.1% Triton-X, and incubated at 37° C. for 30 minutes. Then 100 μL of phosphate buffer (0.1 mM, pH 6.8) containing 0.1% DOPA was added to the lysate and incubated at 37° C. for 3 hours. The resultant melanin content and protein content of the lysate were then quantified.
GC-100 selected for examination was quantitatively evaluated regarding its inhibitory activity of melanogenesis in B16 melanoma cells. B16 melanoma cells were seeded into a 60 mm diameter dish at density of 1.5′×10^5 cells/dish and incubated at 37° C. in DMEM supplemented with 10% FCS and 40 mM sodium lactate. After 4 days, the medium was exchanged to DMEM supplemented with 5% FCS and the aforementioned concentrations of GC-100 and cultured at 37° C. The results are shown in Table 5 and FIG. 11, which is a graph showing tyrosinase activity as a function of GC-100 concentration.

[3] = DMEM + AA + 0.5% GC-100, column A
[4] = DMEM + AA + 0.5% GC-100, column B
[5] = DMEM + AA + 0.5% GC-100, column C
[6] = DMEM + AA + 1% GC-100, column A
[7] = DMEM + AA + 1% GC-100, column B
[8] = DMEM + AA + 1% GC-100, column C

H-Lys-Pro-NH2 [GC-100]
proline incorporation relative to Retin-A (retinoic acid) 0.025% [1]: more than twice
% change of PGE2 vs DMEM + AA, MEAN ([2]; DMEM + AA + 0.5% GC-100): −13%
% change of PGE2 vs DMEM + AA [2, 3]: −10.5%
[PGE2] [2, 3]: 2.81 pg/mL
% change of PGE2 vs DMEM + AA [2, 4]: −19.7%
[PGE2] [2, 4]: 2.41 pg/mL
% change of PGE2 vs DMEM + AA [2, 5]: −8.7%
[PGE2] [2, 5]: 2.62 pg/mL
% change of PGE2 vs DMEM + AA, MEAN ([2]; DMEM + AA + 1% GC-100): −23.9%
% change of PGE2 vs DMEM + AA [2, 6]: −23.9%
[PGE2] [2, 6]: 2.39 pg/mL
% change of PGE2 vs DMEM + AA [2, 7]: −27.7%
[PGE2] [2, 7]: 2.17 pg/mL
% change of PGE2 vs DMEM + AA [2, 8]: −20.2%
[PGE2] [2, 8]: 2.29 pg/mL
mean decrease of PGE2 expression below untreated control ([2]; GC-100 1%): 24%
Tyrosinase activity (% of untreated control) (tyrosinase; GC-100 250 μg/mL): 57.3 ± 12%
Tyrosinase activity (% of untreated control) (tyrosinase; GC-100 500 μg/mL): 34.1 ± 14%
Tyrosinase activity (% of untreated control) (tyrosinase; GC-100 1000 μg/mL): 6.6 ± 14.8%
